Laboratory results from patent US20230293458A1, “MULTIBIOTIC AGENTS AND METHODS OF USING THE SAME” (Flagship Pioneering Innovations V, Inc., priority 2017, published 2023).

Columns and labels:
[1] = Stability of multibiotic agents in Simulated Intestinal Fluid (SIF); type: in vitro ADME; details: simulated intestinal fluid pH 6.7 with pancreatin, 37° C., 1 μM
Procedure: Assay 2. Stability of multibiotic agents in Simulated Intestinal Fluid (SIF). This assay can be used to assess the stability of a multibiotic agent in a small intestine. Phosphate buffer was prepared by dissolving 0.42 g of sodium hydroxide pellets and 3.95 g of monobasic sodium phosphate monohydrate and 6.19 g of sodium chloride in ultrapure water (MilliQ®, Millipore Sigma, Darmstadt, Germany). The pH was adjusted to 6.7 using aq. HCl and aq. NaOH, as necessary, and the solution was diluted with ultrapure water to produce 1 L of the pH 6.7 buffer. 112 mg FaSSIF powder (Biorelevant™, London, UK) was dissolved in 50 mL of the pH 6.7 buffer. 2 to 3 mL of the resulting solution were then added to 500 mg pancreatin (Millipore Sigma, Darmstadt, Germany). The resulting mixture was agitated by finger tapping the vessel containing the mixture until milky suspension formed. At this time, the remainder of the 50 mL FaSSiF/pH 6.7 buffer solution was added. The resulting suspension was flipped upside down 10 times to produce SIF, which was used fresh. Test compounds are dissolved in DMSO stock to 1 mM. An aliquot of the DMSO stock solution is removed and diluted in the SIF media in 15 mL falcon tubes to produce a mixture with a tested compound concentration of 1 μM. A 1 mL aliquot is immediately removed and diluted once with 1 volume of acetonitrile for T0 timepoint. The mixture is sealed and agitated at 37° C. in an incubator. Aliquots (1 mL) are removed at regular intervals and immediately quenched by the addition of 1 volume of acetonitrile. The resulting samples are analyzed by LC/MS to determine degradation rates.

[2] = Stability of multibiotic agents in Simulated Gastric Fluid (SGF); type: in vitro ADME; details: simulated gastric fluid pH 1.6 with pepsin, 37° C., 1 μM
Procedure: Assay 3. Stability of multibiotic agents in Simulated Gastric Fluid (SGF). This assay can be used to assess the stability of a multibiotic agent in a stomach.
Medium was prepared by dissolving 2 g of sodium chloride in 0.6 L in ultrapure water (MilliQ®, Millipore Sigma, Darmstadt, Germany). The pH was adjusted to 1.6 with 1 N hydrochloric acid, and the volume was then adjusted to 1 L with purified water.
60 mg FaSSIF powder (Biorelevant™, London, UK) were dissolved in 500 mL buffer (above). Pepsin was added (0.1 mg/mL) (Millipore Sigma, Darmstadt, Germany), and the solution was stirred. The resulting SGF media were used fresh for each experiment.
Test compounds were dissolved in DMSO stock to 1 mM. An aliquot of the DMSO stock solution was removed and diluted in the SGF Media in 15 mL falcon tubes to generate a total compound concentration of 1 μM. A 1 mL aliquot was immediately removed and diluted once with 1 volume of acetonitrile for T0 timepoint. The mixture was sealed and mixed at 37° C. in an incubator. Aliquots (1 mL) were removed at regular intervals and immediately quenched by the addition of 1 volume of acetonitrile. The resulting samples were analyzed by LC/MS to determine degradation rates in SGF.

Structure (SMILES)	Assay 3 (SIF) (% @ Remaining 4 hours) [1]	Assay 2 (SGF) (% Remaining @ 4 hours) [2]
C[C@@H](O)CC(=O)OCC(C)(C)[C@@H](OC(=O)C[C@@H](C)O)C(=O)NCCC(N)=O [Example 114, [(3R)-4-[(3-amino-3-oxo-propyl)amino]-3-[(3R)-3-hydroxybutanoyl]oxy-2,2-dimethyl-4-oxo-butyl] (3R)-3-hydroxybutanoate]	C (>75% of the tested compound remaining)	C (>75% of the tested compound remaining)
C[C@@H](O)CC(=O)OCCCNC(=O)[C@H](OC(=O)C[C@@H](C)O)C(C)(C)COC(=O)C[C@@H](C)O [Example 111, 3-[[(2R)-2,4-bis[[(3R)-3-hydroxybutanoyl]oxy]-3,3-dimethyl-butanoyl]amino]propyl (3R)-3-hydroxybutanoate]	C (>75% of the tested compound remaining)	C (>75% of the tested compound remaining)
CCCC(=O)O[C@H](C)CC(=O)OCCCNC(=O)[C@H](OC(=O)C[C@@H](C)OC(=O)CCC)C(C)(C)COC(=O)C[C@@H](C)OC(=O)CCC [Example 91, 3-[[(2R)-2,4-bis[[(3R)-3-butanoyloxybutanoyl]oxy]-3,3-dimethyl-butanoyl]amino]propyl (3R)-3-butanoyloxybutanoate]	A (<25% of the tested compound remaining)	C (>75% of the tested compound remaining)
CC(C)(COC(=O)Cc1c[nH]c2ccccc12)[C@@H](OC(=O)Cc1c[nH]c2ccccc12)C(=O)NCCC(N)=O [Example 97, [(3R)-4-[(3-amino-3-oxo-propyl)amino]-3-[2-(1H-indol-3-yl)acetyl]oxy-2,2-dimethyl-4-oxo-butyl] 2-(1H-indol-3-yl)acetate]	C (>75% of the tested compound remaining)	C (>75% of the tested compound remaining)
CC(=O)OCC1(OC(C)=O)OC[C@@H](OC(C)=O)[C@H](OC(C)=O)[C@@H]1OC(C)=O (stereo partly drawn) [Example 162, [(3S,4S,5R)-2,3,4,5-tetraacetoxytetrahydropyran-2-yl]methyl acetate]	B (25-75% of the tested compound remaining)	C (>75% of the tested compound remaining)
CC(C)(COC(=O)Cc1c[nH]c2ccccc12)[C@@H](OC(=O)Cc1c[nH]c2ccccc12)C(=O)NCCCOC(=O)Cc1c[nH]c2ccccc12 [Example 92, 3-[[(2R)-2,4-bis[[2-(1H-indol-3-yl)acetyl]oxy]-3,3-dimethyl-butanoyl]amino]propyl 2-(1H-indol-3-yl)acetate]	C (>75% of the tested compound remaining)	C (>75% of the tested compound remaining)
O=C(CCc1c[nH]c2ccccc12)O[C@H]1CO[C@H]2[C@@H]1OC[C@H]2OC(=O)CCc1c[nH]c2ccccc12 [Example 110, [(3S,3aR,6R,6aR)-6-[3-(1H-indol-3-yl)propanoyloxy]-2,3,3a,5,6,6a-hexahydrofuro[3,2-b]furan-3-yl] 3-(1H-indol-3-yl) propanoate]	A (<25% of the tested compound remaining)	C (>75% of the tested compound remaining)
Cc1c(C)c2c(c(C)c1OC(=O)C1OCC[C@@H](C)O1)CC[C@@](C)(CCC[C@H](C)CCC[C@H](C)CCCC(C)C)O2 (stereo partly drawn) [Example 183, [(2R)-2,5,7,8-tetramethyl-2-[(4R,8R)-4,8,12-trimethyltridecyl]chroman-6-yl] (4R)-4-methyl-1,3-dioxane-2-carboxylate]	A (<25% of the tested compound remaining)	C (>75% of the tested compound remaining)
CC(=O)OCc1cnc(C)c(O)c1COC(C)=O [Example 80, [4-(acetoxymethyl)-5-hydroxy-6-methyl-3-pyridyl] methyl acetate]	C (>75% of the tested compound remaining)	C (>75% of the tested compound remaining)
O=C(Cc1c[nH]c2ccccc12)Oc1ccc(/C=C/c2cc(OC(=O)Cc3c[nH]c4ccccc34)cc(OC(=O)Cc3c[nH]c4ccccc34)c2)cc1 [Example 8, [4-[(E)-2-[3,5-bis[[2-(1H-indol-3-yl)acetyl]oxy]phenyl]vinyl]phenyl] 2-(1H-indol-3-yl)acetate]	C (>75% of the tested compound remaining)	C (>75% of the tested compound remaining)
CCCC(=O)NCCCCN(CCCNC(=O)CCC)C(=O)CCC [Example 127, N-[4-[butanoyl-[3-(butanoylamino)propyl]amino]butyl]butanamide]	C (>75% of the tested compound remaining)	C (>75% of the tested compound remaining)
O=C(Cc1c[nH]c2ccccc12)O[C@@H]1OC[C@@H](OC(=O)Cc2c[nH]c3ccccc23)[C@@H](OC(=O)Cc2c[nH]c3ccccc23)[C@H]1OC(=O)Cc1c[nH]c2ccccc12 [Example 146, [(3R,4R,5R,6S)-4,5,6-tris[[2-(1H-indol-3-yl)acetyl]oxy]tetrahydropyran-3-yl] 2-(1H-indol-3-yl)acetate]	A (<25% of the tested compound remaining)	C (>75% of the tested compound remaining)
CCCC(=O)Oc1ccc(N)cc1C(=O)O [Example 2, 5-amino-2-butanoyloxy-benzoic acid]	C (>75% of the tested compound remaining)	C (>75% of the tested compound remaining)
CCC(=O)OC1OC[C@@H](OC(=O)CC)[C@H](OC(=O)CC)[C@H]1OC(=O)CC (stereo partly drawn) [Example 165, [(3R,4S,5R)-4,5,6-tri(propanoyloxy)tetrahydropyran-3-yl] propanoate]	A (<25% of the tested compound remaining)	C (>75% of the tested compound remaining)
CCCC(=O)O[C@@H]1[C@H](OC(=O)CCC)COC(O)[C@@H]1OC(=O)CCC (stereo partly drawn) [Example 144, [(3R,4R,5R)-4,5-di(butanoyloxy)-6-hydroxy-tetrahydropyran-3-yl] butanoate]	A (<25% of the tested compound remaining)	C (>75% of the tested compound remaining)
CC(C)(COC(=O)/C=C/c1c[nH]c2ccccc12)[C@@H](OC(=O)/C=C/c1c[nH]c2ccccc12)C(=O)NCCC(N)=O [Example 124, [(3R)-4-[(3-amino-3-oxo-propyl)amino]-3-[(E)-3-(1H-indol-3-yl)prop-2-enoyl]oxy-2,2-dimethyl-4-oxo-butyl] (E)-3-(1H-indol-3-yl)prop-2-enoate]	C (>75% of the tested compound remaining)	C (>75% of the tested compound remaining)
CCCC(=O)/N=C(/NCCCCNC(=O)CCC)NC(=O)CCC [Example 134, N-[4-[[(Z)—N,N′-di(butanoyl)carbamimidoyl]amino]butyl]butanamide]	C (>75% of the tested compound remaining)	C (>75% of the tested compound remaining)
CC(=O)OCC(C)(C)[C@@H](OC(C)=O)C(=O)NCCC(N)=O [Example 94, [(3R)-3-acetoxy-4-[(3-amino-3-oxo-propyl)amino]-2,2-dimethyl-4-oxo-butyl] acetate]	C (>75% of the tested compound remaining)	C (>75% of the tested compound remaining)
